In patent EP4810508A1, “ARABINOSE DERIVATIVE COMPOUND, AND COMPOSITION COMPRISING SAME FOR PREVENTING OR TREATING DEGENERATIVE BRAIN DISEASES” (Digmbio. Inc., priority 2023, dated 2025):
Where two headings read alike, the source gives them in different places.

Tested on: HRE/Luc/HEK293 cells
Assay: HRE (Hypoxia Response Element) luciferase assay
Assay type: cell-based, human
Settings: for fold induction at 10 µM / fold induction at 100 µM: Homo sapiens; for HRE expression: low concentration of 1 µM
Experimental: • (a) HRE assay: Confirmation of increased in HRE expression levels by the test substance relative to the vehicle in HRE/Luc/HEK293 cells • * Less than a twofold increase at 100 µM, • ** More than a twofold increase at 100 µM, • *** More than a twofold increase at 10 µM, • **** More than a twofold increase at 1 µM, • Not performed.
It has been reported that in the brains of AD patients, blood supply is mostly insufficient, resulting in oxygen levels being up to 50% lower than those of normal individuals, leading to increased oxidative stress (ROS) and neuroinflammation. It has also been studied that when the HIF-1α (hypoxia inducible factor-1) factor binds to the HRE (hypoxia response element), it increases VEGF (vascular endothelial growth factor), which promotes the formation of new blood vessels, thereby increasing oxygen levels in the brain and helping to inhibit nerve cell damage.
A reporter gene containing luciferase, capable of verifying the level of HRE expression, was inserted into HEK-293 human embryonic kidney cells, and HRE/Luc/HEK293 cells were constructed by inserting a plasmid (HRE/Luc) with luciferase attached downstream of the HRE promoter that binds to HIF-1α using lipofectamine (Invitrogen).
To perform HRE luciferase analysis, HRE/Luc/HEK293 cells were seeded in 96-well culture plates at a cell density of 4 x 10^4 per well in minimal essential medium (MEM) containing 10% fetal bovine serum. After one day, the cell medium was removed and replaced with medium mixed with various concentrations of example compounds. Six hours after compound pretreatment, HRE/Luc/HEK293 cells were cultured under hypoxic conditions (O2 0.1%) for 18 hours. Subsequently, the cells were washed with phosphate buffer, lysed with lysis buffer, and then the luciferase reagent (Promega) for luciferase analysis was added. Afterward, changes in HRE expression levels associated with HIF-1 signaling were evaluated by measuring luminescence using an Infinite200 (Tecan).

[1] = HEK293, 18 h, 10uM, Table 2 (Examples 75-109, 114), read-out: HRE-inceasing 10uM
[2] = HEK293, 18 h, 100uM, Table 2 (Examples 75-109, 114), read-out: HRE-inceasing 100uM
[3] = HEK293, 18 h, 10uM, Table 2 (Examples 37-74, 52), read-out: HKt-increasing 10uM
[4] = HEK293, 18 h, 100uM, Table 2 (Examples 37-74, 52), read-out: HKt-increasing 100uM
[5] = HEK293, 10uM, fold increase of HRE expression, hypoxic conditions (O2 0.1%) 18 hours, Table 2, read-out: HRE-increasing 10uM
[6] = HEK293, 100uM, fold increase of HRE expression, hypoxic conditions (O2 0.1%) 18 hours, Table 2, read-out: HRE-increasing 100uM

| SMILES | fold induction at 10 µM [1] | fold induction at 100 µM [2] | fold induction at 10 µM [3] | fold induction at 100 µM [4] | also measured |
| --- | --- | --- | --- | --- | --- |
| Cc1ccc2c(ccn2-c2ccc(O[C@H]3OC[C@H](O)[C@H](O)[C@H]3O)cc2)c1 [Example 90, (2R,3R,4S,5S)-2-(4-(5-methyl-1H-indol-1-yl)phenoxy)tetrahydro-2H-pyran-3,4,5-triol] | 1.7 | 2.4 |  |  |  |
| COc1ccc(Cc2ccc(O[C@H]3OC[C@H](O)[C@H](O)[C@H]3O)c(F)c2)cc1 [Example 46, (2R,3R,4S,5S)-2-(2-fluoro-4-(4-methoxybenzyl)phenoxy)tetrahydro-2H-pyran-3,4,5-triol] |  |  | 1.1 | 1.8 |  |
| COc1ccc2cc(-c3ccc(O[C@H]4OC[C@H](O)[C@H](O)[C@H]4O)cc3)oc2c1 [Example 81, (2R,3R,4S,5S)-2-(4-(6-methoxybenzofuran-2-yl)phenoxy)tetrahydro-2H-pyran-3,4,5-triol] | 2.7 | 3.6 |  |  |  |
| Cc1cc(C)cc(Oc2ccc(O[C@H]3OC[C@H](O)[C@H](O)[C@H]3O)cc2)c1 [Example 34, (2R,3R,4S,5S)-2-(4-(3,5-dimethylphenoxy)phenoxy)tetrahydro-2H-pyran-3,4,5-triol] |  |  |  |  | fold induction at 10 µM [5]: 1.1; fold induction at 100 µM [6]: 1 |
| CC(C)c1ccc(Oc2ccc(O[C@H]3OC[C@@H](O)[C@H](O)[C@H]3O)c(Cl)c2)cc1 [Example 67, (2R,3R,4S,5R)-2-(2-chloro-4-(4-isopropylphenoxy)henoxy)tetrahydro-2H-pyran-3,4,5-triol] |  |  | 3.5 | 2.6 | HRE expression: more than threefold |
| CO[C@@H]1[C@@H](O)[C@@H](Oc2ccc(Oc3ccc(C(C)C)cc3)cc2)OC[C@@H]1O [Example 60, (2R,3R,4S,5S)-2-(4-(4-isopropylphenoxy)phenoxy)-4-methoxytetrahydro-2H-pyran-3,5-diol] |  |  | 2.3 | 1.6 |  |
| Cc1ccc2oc(-c3ccc(O[C@H]4OC[C@H](O)[C@H](O)[C@H]4O)c(F)c3)nc2c1 [Example 105, (2R,3R,4S,5S)-2-(2-fluoro-4-(5-methylbenzo[d]oxazol-2-yl)phenoxy)tetrahydro-2H-pyran 3,4,5-triol] | 2.5 | 3.7 |  |  |  |
| COc1ccc(Cc2ccc(O[C@H]3OC[C@H](O)[C@H](O)[C@H]3O)cc2)c(Cl)c1 [Example 49, (2R,3R,4S,5S)-2-(4-(2-chloro-4-methoxybenzyl)phenoxy)tetrahydro-2H-pyran-3,4,5-triol] |  |  | 1 | 1.1 |  |
| COc1ccc2oc(-c3cccc(O[C@@H]4OC[C@H](O)[C@H](O)[C@H]4O)c3)nc2c1 [Example 106, (2S,3R,4S,5S)-2-(3-(5-methoxybenzo[d]oxazol-2-yl)phenoxy)tetrahydro-2H-pyran-3,4,5-triol] | 3.4 | 1.7 |  |  | HRE expression: more than threefold |
| O=C(c1ccc(O[C@@H]2OC[C@H](O)[C@H](O)[C@H]2O)cc1)c1ccco1 [Example 114, furan-2-yl (4-(((2S,3R,4S,5S)-3,4,5-trihydroxytetrahydro-2H-pyran-2-yl)oxy)phenyl)methanone] | 1.1 | 1.3 |  |  |  |
| O[C@@H]1[C@@H](O)[C@@H](Oc2ccc(Cc3ccc4ccccc4c3)cc2)OC[C@@H]1O [Example 19, (2R,3R,4S,5S)-2-(4-(naphthalen-2-ylmethyl)phenoxy) tetrahydro-2H-pyran-3,4,5-triol] |  |  |  |  | fold induction at 10 µM [5]: 1.3; fold induction at 100 µM [6]: 1.8 |
| O[C@@H]1[C@@H](O)[C@H](Oc2ccc(CN3CCOCC3)cc2)OC[C@@H]1O [Example 76, (2S,3R,4S,5S)-2-(4-(morpholinomethyl)phenoxy)tetrahydro-2H-pyran-3,4,5-triol] | < 1 | 1 |  |  |  |
| CC(C)c1ccc(-c2ccc(O[C@@H]3OC[C@H](O)[C@H](O)[C@H]3O)cc2)cc1 [Example 87, (2S,3R,4S,5S)-2-((4'-isopropyl-[1,1'-biphenyl]-4-yl)oxy)tetrahydro-2H-pyran-3,4,5-triol] | 2.4 | 3.1 |  |  |  |
| CC(C)c1ccc(Cc2ccc(S[C@@H]3OC[C@H](O)[C@H](O)[C@H]3O)cc2)cc1 [Example 28, (2S,3R,4S,5S)-2-((4-(4-isopropylbenzyl)phenyl)thio) tetrahydro-2H-pyran-3,4,5-triol] |  |  |  |  | fold induction at 10 µM [5]: 1.8 |
| COc1ccc(Cc2ccc(S[C@H]3OC[C@H](O)[C@H](O)[C@H]3O)cc2)cc1 [Example 29, (2R,3R,4S,5S)-2-((4-(4-methoxybenzyl)phenyl)thio) tetrahydro-2H-pyran-3,4,5-thiol] |  |  |  |  | fold induction at 10 µM [5]: 2.7; fold induction at 100 µM [6]: 2.6 |
| CC(C)c1ccc(Oc2ccc(O[C@@H]3C[C@@H](O)[C@@H](O)CO3)cc2)cc1 [Example 66, (3S,4R,6R)-6-(4-(4-isopropylphenoxy)phenoxy)tetrahydro-2H-pyran-3,4-diol] |  |  | 2.9 | 2.2 |  |
| O[C@@H]1[C@@H](O)[C@@H](Oc2ccc(Cc3ccc(OC(F)(F)F)cc3)cc2)OC[C@@H]1O [Example 10] |  |  |  |  | HRE-increasing 10uM (10uM, fold increase of HRE expression, hypoxic conditions (O2 0.1%) 18 hours, Table 2): 1; HRE-increasing 100uM (100uM, fold increase of HRE expression, hypoxic conditions (O2 0.1%) 18 hours, Table 2): <1; HRE assay (increase in HRE expression levels by the test substance relative to the vehicle in HRE/Luc/HEK293 cells): • |
| CC(C)c1ccc(Oc2ccc(O[C@H]3O[C@H](CO)[C@H](O)[C@H](O)[C@H]3O)cc2)cc1 [Example 59, (2R,3R,4S,5R,6R)-2-(hydroxymethyl)-6-(4-(4-isopropylphenoxy)phenoxy)tetrahydro-2H-pyran-3,4,5-triol] |  |  | 1.8 | 2.8 |  |
| O[C@@H]1[C@@H](O)[C@@H](Oc2ccc(CC3CCCC3)cc2)OC[C@@H]1O [Example 21, (2R,3R,4S,5S)-2-(4-(cyclopentylmethyl)phenoxy)tetrahydro-2H-pyran-3,4,5-triol] |  |  |  |  | fold induction at 10 µM [5]: 2.3; fold induction at 100 µM [6]: 2.4 |
| CC(C)c1ccc(-c2ccc(Cc3ccc(O[C@H]4OC[C@H](O)[C@H](O)[C@H]4O)cc3)cc2)cc1 [Example 52, (2R,3R,4S,5S)-2-(4-((4'-isopropyl-[1,1'-biphenyl]-4-yl)methyl)phenoxy)tetrahydro-2H-pyran-3,4,5-triol] |  |  | 2 | 3.6 |  |
| CC(C)c1ccc(Oc2ccc(O[C@H]3OC[C@H](O)[C@H](O)[C@@H]3F)cc2)cc1 [Example 65, (3S,4S,5S,6R)-5-fluoro-6-(4-(4-isopropylphenoxy)phenoxy)tetrahydro-2H-pyran-3,4-diol] |  |  | 2.6 | 2.4 |  |
| O[C@@H]1[C@@H](O)[C@H](Oc2ccc(CN3CCCC3)cc2)OC[C@@H]1O [Example 75, (2S,3R,4S,5S)-2-(4-(pyrrolidin-1-ylmethyl)phenoxy)tetrahydro-2H-pyran-3,4,5-triol] | 1 | 1 |  |  |  |
| Cc1ccc2oc(-c3ccc(O[C@H]4OC[C@H](O)[C@H](O)[C@H]4O)c(Cl)c3)nc2c1 [Example 99, (2R,3R,4S,5S)-2-(2-chloro-4-(5-methylbenzo [d]oxazol-2-yl)phenoxy)tetrahydro-2H-pyran-3,4,5-triol] | 2.8 | 3.6 |  |  |  |
| O[C@@H]1[C@@H](O)[C@@H](Oc2ccc(Cc3cc(C(F)(F)F)cc(C(F)(F)F)c3)cc2)OC[C@@H]1O [Example 16, (2R,3R,4S,5S)-2-(4-(3,5-bis(trifluoromethyl)benzyl)phenoxy) tetrahydro-2H-pyran-3,4,5-triol] |  |  |  |  | fold induction at 10 µM [5]: 1; fold induction at 100 µM [6]: < 1 |
| COc1ccc(Cc2ccc(O[C@H]3OC[C@H](O)[C@H](O)[C@H]3OC)cc2)cc1 [Example 5, (3S,4S,5R,6R)-5-methoxy-6-(4-(4-methoxybenzyl)phenoxy)tetrahydro-2H-pyran-3,4-diol] |  |  |  |  | fold induction at 10 µM [5]: 1.2; fold induction at 100 µM [6]: 1.9 |
| COc1ccc2oc(-c3cccc(O[C@H]4OC[C@H](O)[C@H](O)[C@H]4O)c3)nc2c1 [Example 107, (2R,3R,4S,5S)-2-(3-(5-methoxybenzo[d]oxazol-2-yl)phenoxy)tetrahydro-2H-pyran-3,4,5-triol] | 3.1 | 4.2 |  |  | HRE expression: more than threefold |
